Here are results for 1 compound from patent US20160185682A1, “NITRIFICATION INHIBITOR COMPOSITIONS AND METHODS FOR PREPARING THE SAME” (Dow AgroSciences LLC, priority 2014, published 2016).

Series [1] is described as follows: ATR-FTIR diffusion of nitrapyrin through polymer film, diffusion constant fitted by Fick's second law model. The format is physicochemical. The text has this:
(§1) In some embodiments of the present disclosure, in order to measure the diffusion of nitrification inhibitors through volatilization barriers and, therefore, provide diffusion constants to estimate the ultimate loss of nitrification inhibitors to volatilization, Fourier transform infrared spectroscopy operating in attenuated total reflectance mode (“ATR-FTIR”) can be employed to probe diffusion of nitrification inhibitors, such as, for example, nitrapyrin, through polymeric materials.
(§2) A Nicolet 4700 Fourier transform infrared spectrometer (“FTIR”) with SCFGG using attenuated total reflectance (“ATR”) accessory (“Specac”) was utilized in the studies presented herein. Nitrapyrin technical grade manufactured by Dow AgroSciences LLC was used in some of the experiments presented herein. […]
(§3) Kollidon VA64 was purchased as a vinyl pyrrolidone/vinyl acetate 60/40 copolymer from Sigma Aldrich. […] Film thickness was measured using a Dektak profilometer (Veeco). […]
(§4) Films were allowed to equilibrate in the FTIR chamber for thirty minutes before the experiments were started. […] A single-beam spectrum was acquired of the film for use as a background spectrum, after which absorbance spectra were continuously recorded throughout the experiment. Peak heights were determined using a macro and data were fit according to the model as described below. […]

Series [2] is classed as physicochemical.
Description: as §1, §2, §3, §4

The conditions of series [3]: at 230 Celsius; cited from earlier work.

`Clc1cccc(C(Cl)(Cl)Cl)n1` [nitrapyrin, 2-chloro-6-(trichloromethyl)pyridine]: the “diffusion profile of nitrapyrin through film” value in series [1] (Kollidon VA64 film, 30 μm, curve not well-fitting a standard diffusion model) was “slow through the film before it rapidly equilibrates”. Besides, the diffusion constant in series [1] (Polyvinyl pyrollidone (K90) film) is reported as 0.1-1 μm^2/s. Also, in series [2], the “diffusion constant for nitrapyrin through polymer film (printed as 'partition coefficient')” value was 10^−3-10^−2 μm^2/s. Also, the vapor pressure in series [3] is recorded as 2.8×10^−3 mm Hg.
